Measurements as given in PubChem BioAssay (NCI).
Values joined by “and” are separate entries in the source; they are usually repeats but may differ in a detail not shown here. Equal entries are not always repeated.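 A five-concentration, 48-hour dose response in 96-well plates underlies each endpoint, interpolated linearly between surrounding concentrations. Abbreviation: GI50, concentration required for 50% inhibition of growth. TGI: total growth inhibition.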

How the values were obtained:
Assay in all cases: growth of human tumour cells (NCI), 48 h
SK-OV-3 ovarian = system: SK-OV-3 ovarian
CAKI-1 renal = system: CAKI-1 renal
NCI-H460 lung = system: NCI-H460 lung
MDA-MB-435 = system: MDA-MB-435
RPMI-8226 leukemia = system: RPMI-8226 leukemia
KM12 colon = system: KM12 colon
MCF7 breast = system: MCF7 breast
MOLT-4 leukemia = system: MOLT-4 leukemia
NCI-H522 lung = system: NCI-H522 lung
T-47D breast = system: T-47D breast
HCT-15 colon = system: HCT-15 colon
SW-620 colon = system: SW-620 colon
HCC-2998 colon = system: HCC-2998 colon
CCRF-CEM leukemia = system: CCRF-CEM leukemia
NCI-H23 lung = system: NCI-H23 lung
NCI-H226 lung = system: NCI-H226 lung
HCT-116 colon = system: HCT-116 colon
SK-MEL-2 melanoma = system: SK-MEL-2 melanoma
M14 melanoma = system: M14 melanoma
HOP-62 NSCLC = system: HOP-62 NSCLC
SN12C renal = system: SN12C renal
A549 NSCLC = system: A549 NSCLC
MDA-MB-231 breast = system: MDA-MB-231 breast
786-0 renal = system: 786-0 renal
ACHN renal = system: ACHN renal
HS 578T breast = system: HS 578T breast
HT29 colon = system: HT29 colon
OVCAR-8 ovarian = system: OVCAR-8 ovarian
SNB-19 CNS = system: SNB-19 CNS
SF-539 CNS = system: SF-539 CNS
LOX IMVI melanoma = system: LOX IMVI melanoma
SNB-75 CNS = system: SNB-75 CNS
COLO 205 colon = system: COLO 205 colon
EKVX NSCLC = system: EKVX NSCLC
SK-MEL-5 melanoma = system: SK-MEL-5 melanoma
SF-268 CNS = system: SF-268 CNS
UO-31 renal = system: UO-31 renal
UACC-62 melanoma = system: UACC-62 melanoma
SK-MEL-28 melanoma = system: SK-MEL-28 melanoma
HL-60(TB) leukemia = system: HL-60(TB) leukemia
SR leukemia = system: SR leukemia
HOP-92 NSCLC = system: HOP-92 NSCLC
SF-295 CNS = system: SF-295 CNS
PC-3 prostate = system: PC-3 prostate
OVCAR-4 ovarian = system: OVCAR-4 ovarian
DU-145 prostate = system: DU-145 prostate
K-562 leukemia = system: K-562 leukemia
MALME-3M melanoma = system: MALME-3M melanoma
NCI/ADR-RES ovarian = system: NCI/ADR-RES ovarian
UACC-257 melanoma = system: UACC-257 melanoma
BT-549 breast = system: BT-549 breast
U251 CNS = system: U251 CNS
A498 renal = system: A498 renal
OVCAR-3 ovarian = system: OVCAR-3 ovarian
RXF 393 renal = system: RXF 393 renal
IGROV1 ovarian = system: IGROV1 ovarian
TK-10 renal = system: TK-10 renal
OVCAR-5 ovarian = system: OVCAR-5 ovarian

SMILES: CC1CCCc2sc3nc(NNC(=O)c4cnccn4)n(-c4ccccc4)c(=O)c3c21 (stereo not given)
- GI50 (SK-OV-3 ovarian): 489 nM and 544 nM
- TGI (SK-OV-3 ovarian): 8420 nM and 8200 nM
- GI50 (CAKI-1 renal): 559 nM and 334 nM
- TGI (CAKI-1 renal): > 54400 nM and 9230 nM
- GI50 (NCI-H460 lung): 250 nM and 121 nM
- TGI (NCI-H460 lung): 11400 nM and 2270 nM
- GI50 (MDA-MB-435): 700 nM and 556 nM
- TGI (MDA-MB-435): 25100 nM and > 40800 nM
- GI50 (RPMI-8226 leukemia): 563 nM and 277 nM
- TGI (RPMI-8226 leukemia): 17900 nM and 16600 nM
- GI50 (KM12 colon): 428 nM and 347 nM
- TGI (KM12 colon): > 49100 nM and 32500 nM
- GI50 (MCF7 breast): 325 nM and 238 nM
- TGI (MCF7 breast): > 79300 nM and 14400 nM
- GI50 (MOLT-4 leukemia): 343 nM and 256 nM
- TGI (MOLT-4 leukemia): > 100000 nM
- GI50 (NCI-H522 lung): 392 nM and 327 nM
- TGI (NCI-H522 lung): 10200 nM and 16600 nM
- GI50 (T-47D breast): 520 nM and 397 nM
- TGI (T-47D breast): > 100000 nM
- GI50 (HCT-15 colon): 237 nM and 71.7 nM
- TGI (HCT-15 colon): 34400 nM and 17600 nM
- GI50 (SW-620 colon): 483 nM and 463 nM
- TGI (SW-620 colon): > 100000 nM
- GI50 (HCC-2998 colon): 550 nM and 324 nM
- TGI (HCC-2998 colon): 26300 nM and 16300 nM
- GI50 (CCRF-CEM leukemia): 295 nM and 169 nM
- TGI (CCRF-CEM leukemia): > 100000 nM
- GI50 (NCI-H23 lung): 871 nM and 465 nM
- TGI (NCI-H23 lung): > 100000 nM and 26500 nM
- GI50 (NCI-H226 lung): 634 nM and 277 nM
- TGI (NCI-H226 lung): 9600 nM and 5750 nM
- GI50 (HCT-116 colon): 338 nM and 264 nM
- TGI (HCT-116 colon): 14000 nM and 13400 nM
- GI50 (SK-MEL-2 melanoma): 1050 nM and 705 nM
- TGI (SK-MEL-2 melanoma): 19400 nM and 19800 nM
- GI50 (M14 melanoma): 321 nM and 205 nM
- TGI (M14 melanoma): 5440 nM and 2650 nM
- GI50 (HOP-62 NSCLC): 385 nM and 203 nM
- TGI (HOP-62 NSCLC): > 100000 nM
- GI50 (SN12C renal): 468 nM and 368 nM
- TGI (SN12C renal): 15900 nM and 13700 nM
- GI50 (A549 NSCLC): 367 nM and 262 nM
- TGI (A549 NSCLC): 22400 nM and 16200 nM
- GI50 (MDA-MB-231 breast): 425 nM and 328 nM
- TGI (MDA-MB-231 breast): 13400 nM and 13500 nM
- GI50 (786-0 renal): 508 nM and 274 nM
- TGI (786-0 renal): 12400 nM and 5430 nM
- GI50 (ACHN renal): 331 nM and 217 nM
- TGI (ACHN renal): 18700 nM and 13100 nM
- GI50 (HS 578T breast): 3460 nM and 2790 nM
- TGI (HS 578T breast): > 74600 nM and 87300 nM
- GI50 (HT29 colon): 975 nM and 461 nM
- TGI (HT29 colon): 49000 nM and 17600 nM
- GI50 (OVCAR-8 ovarian): 346 nM and 333 nM
- TGI (OVCAR-8 ovarian): > 93200 nM
- GI50 (SNB-19 CNS): 389 nM and 340 nM
- TGI (SNB-19 CNS): > 100000 nM
- GI50 (SF-539 CNS): 658 nM and 328 nM
- TGI (SF-539 CNS): 10300 nM and 4320 nM
- GI50 (LOX IMVI melanoma): 259 nM and 195 nM
- TGI (LOX IMVI melanoma): 3800 nM and 8060 nM
- GI50 (SNB-75 CNS): 1060 nM and 899 nM
- TGI (SNB-75 CNS): 38700 nM and > 50000 nM
- GI50 (COLO 205 colon): 327 nM and 284 nM
- TGI (COLO 205 colon): 3520 nM and 25000 nM
- GI50 (EKVX NSCLC): 383 nM and 258 nM
- TGI (EKVX NSCLC): > 100000 nM
- GI50 (SK-MEL-5 melanoma): 371 nM and 205 nM
- TGI (SK-MEL-5 melanoma): 1810 nM and 933 nM
- GI50 (SF-268 CNS): 346 nM and 207 nM
- TGI (SF-268 CNS): > 100000 nM
- GI50 (UO-31 renal): 214 nM and 151 nM
- TGI (UO-31 renal): 6470 nM and 2960 nM
- GI50 (UACC-62 melanoma): 296 nM and 258 nM
- TGI (UACC-62 melanoma): 2200 nM and 1110 nM
- GI50 (SK-MEL-28 melanoma): 485 nM and 378 nM
- TGI (SK-MEL-28 melanoma): 19800 nM and 32500 nM
- GI50 (HL-60(TB) leukemia): 367 nM and 279 nM
- TGI (HL-60(TB) leukemia): 2750 nM and 908 nM
- GI50 (SR leukemia): 361 nM and 110 nM
- TGI (SR leukemia): > 32600 nM
- GI50 (HOP-92 NSCLC): 996 nM and 397 nM
- TGI (HOP-92 NSCLC): 21800 nM and 16600 nM
- GI50 (SF-295 CNS): 479 nM and 159 nM
- TGI (SF-295 CNS): 15400 nM and 7810 nM
- GI50 (PC-3 prostate): 499 nM and 385 nM
- TGI (PC-3 prostate): 22200 nM and 26600 nM
- GI50 (OVCAR-4 ovarian): 211 nM and 215 nM
- TGI (OVCAR-4 ovarian): > 100000 nM
- GI50 (DU-145 prostate): 598 nM and 339 nM
- TGI (DU-145 prostate): > 39800 nM and 18900 nM
- GI50 (K-562 leukemia): 454 nM and 399 nM
- TGI (K-562 leukemia): > 100000 nM
- GI50 (MALME-3M melanoma): 657 nM and 345 nM
- TGI (MALME-3M melanoma): 11600 nM and 11100 nM
- GI50 (NCI/ADR-RES ovarian): 380 nM and 232 nM
- GI50 (UACC-257 melanoma): 540 nM and 365 nM
- TGI (UACC-257 melanoma): 6980 nM and 3860 nM
- GI50 (BT-549 breast): 813 nM and 472 nM
- TGI (BT-549 breast): 28600 nM and 12400 nM
- GI50 (U251 CNS): 260 nM and 182 nM
- TGI (U251 CNS): > 40800 nM and 30100 nM
- GI50 (A498 renal): 2620 nM and 688 nM
- TGI (A498 renal): 8540 nM and 4440 nM
- GI50 (OVCAR-3 ovarian): 288 nM and 249 nM
- TGI (OVCAR-3 ovarian): 22200 nM and 12500 nM
- GI50 (RXF 393 renal): 955 nM and 454 nM
- TGI (RXF 393 renal): 5480 nM and 3840 nM
- GI50 (IGROV1 ovarian): 327 nM and 172 nM
- TGI (IGROV1 ovarian): 16900 nM and 13300 nM
- GI50 (TK-10 renal): 686 nM and 329 nM
- TGI (TK-10 renal): > 83000 nM
- GI50 (OVCAR-5 ovarian): 656 nM and 371 nM
- TGI (OVCAR-5 ovarian): 30900 nM and 33600 nM
